Experimental data reported in patent publication US4810800A, “Novel imidazole dopamine beta hydroxylase inhibitors” (Merrell Dow Pharmaceuticals Inc., priority 1988, dated 1989).

How the values were obtained:
[1] = molecular target: T1, dopamine beta-hydroxylase (Bos taurus, UniProt P15101); assay: in vitro DBH inhibition (conversion of tyramine to octopamine; oxygen uptake by polarographic electrode); assay type: biochemical; conditions: pH of 5, 37° C. preferably
T1 sequence (P15101 1-610): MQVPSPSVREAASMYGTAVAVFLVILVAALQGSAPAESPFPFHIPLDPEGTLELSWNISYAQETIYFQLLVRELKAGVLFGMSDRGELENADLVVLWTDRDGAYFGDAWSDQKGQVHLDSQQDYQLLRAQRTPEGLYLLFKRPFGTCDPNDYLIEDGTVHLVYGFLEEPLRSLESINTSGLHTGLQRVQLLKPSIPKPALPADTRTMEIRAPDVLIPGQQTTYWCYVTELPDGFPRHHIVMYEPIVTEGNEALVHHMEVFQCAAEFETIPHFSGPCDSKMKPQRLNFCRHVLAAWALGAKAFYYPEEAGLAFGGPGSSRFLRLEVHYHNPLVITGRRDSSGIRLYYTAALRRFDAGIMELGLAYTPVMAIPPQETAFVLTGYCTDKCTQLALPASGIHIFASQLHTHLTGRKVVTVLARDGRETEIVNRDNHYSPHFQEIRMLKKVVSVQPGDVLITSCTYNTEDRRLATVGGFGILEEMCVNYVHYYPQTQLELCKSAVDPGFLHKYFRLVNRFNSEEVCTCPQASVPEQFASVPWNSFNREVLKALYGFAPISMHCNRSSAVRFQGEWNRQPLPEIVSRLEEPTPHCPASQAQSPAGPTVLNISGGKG
Protocol: The DBH inhibitory properties of the compounds of this invention can readily be determined in vitro by standard and well known procedures for assaying conversion of tyramine to octopamine in the presence of dopamine beta-hydroxylase. Enzymatic oxygenation by DBH is determined in aqueous solution in the presence of molecular oxygen, an electron donor such as ascorbate, and the necessary cofactors for the enzyme at pH of 5 and a temperature of 20°-40° C., preferably 37° C. The test compound is added at the desired concentration, and the system is incubated. Activity is measured by measuring the oxygen uptake using a polarographic electrode and an oxygen monitor by the method of S. May, et al., J. Biol. Chem. 256, 2258 (1981). Inhibition is given in molar concentration of compound at which DBH activity was halved (IC50) when the test compounds were tested according to the above described procedure. The IC50 (expressed in micromolar units) data of some of the compounds of this invention are expressed in Table I.

[2] = test system: spontaneously hypertensive rats; assay: antihypertensive effect: blood pressure monitored continuously in spontaneously hypertensive rats after ip dosing; assay type: in vivo; conditions: 50 mg/kg, 6 hours post dose in SHR, Mean Difference ± Standard Deviation
Protocol: The ability of the compounds of this invention to lower blood pressure can be determined in vivo using spontaneously hypertensive rats (SHR'S) according to standard and well known procedures. The test compound is administered intraperitoneally (ip) to rats and the blood pressure monitored continuously. Snce DBH is a major enzyme in the synthetic pathway of the catecholamines, it would be expected that the presence of an inhibitor would act to decrease the amount of catecholamines produced, and thereby have an antihypertensive effect. The results of the testing for this antihypertensive effect are shown in Table I (MBP is mean blood pressure).
In Vivo at 50 mg/kg, IP, 6 Hours Post Dose in SHR's*

| IC50 [1] [µM] | SMILES | Max Change MBP (mean blood pressure) [2] [mmHg] |
| --- | --- | --- |
| 12.8 | NCc1nccn1Cc1cccs1 [Compound 1, 2-Aminomethyl-1-(2-thienylmethyl)-1H-imidazole] | -41 ± 14 |
| 4.7 | NC(=S)c1nccn1Cc1cccs1 [Compound 2, 1-(2-Thienylmethyl)-2-thiocarbamyl-1H-imidazole] | -25 ± 12 |
